Laboratory results as given in the NIST ThermoML archive (doi:10.1016/j.tca.2012.01.013).

Assays:
[1] = refractive index (Na D-line) (dimensionless); xn = mol fraction of the nth substance listed; conditions: 101 kPa, Liquid, Standard Abbe refractometry
[2] = xn = mol fraction of the nth substance listed; conditions: 101 kPa, Liquid, Vibrating tube method

COC(=O)c1ccccc1C(=O)OC [dimethyl 1,2-benzenedicarboxylate] + CCC(C)=O
Conditions | mass density, [2] [kg/m3] | refractive index, [1]
288.15 K, x1 = 0.1002 | 878.718 | 1.40705
288.15 K, x1 = 0.2001 | 936.554 | 1.42733
288.15 K, x1 = 0.3002 | 986.029 | 1.44555
288.15 K, x1 = 0.3997 | 1028.42 | 1.46042
288.15 K, x1 = 0.4982 | 1064.97 | 1.47261
288.15 K, x1 = 0.6001 | 1098.15 | 1.48425
288.15 K, x1 = 0.6993 | 1126.71 | 1.49362
288.15 K, x1 = 0.7993 | 1152.38 | 1.50271
288.15 K, x1 = 0.9002 | 1175.59 | 1.51071
288.15 K, x1 = 1 | 1196.26 | 1.51779
293.15 K, x1 = 0.1002 | 873.583 | 1.40471
293.15 K, x1 = 0.2001 | 931.496 | 1.42489
293.15 K, x1 = 0.3002 | 981.04 | 1.44315
293.15 K, x1 = 0.3997 | 1023.49 | 1.45808
293.15 K, x1 = 0.4982 | 1060.1 | 1.4703
293.15 K, x1 = 0.6001 | 1093.33 | 1.48198
293.15 K, x1 = 0.6993 | 1121.93 | 1.49141
293.15 K, x1 = 0.7993 | 1147.64 | 1.50053
293.15 K, x1 = 0.9002 | 1170.9 | 1.50855
293.15 K, x1 = 1 | 1191.59 | 1.51565
298.15 K, x1 = 0.1002 | 868.432 | 1.40224
298.15 K, x1 = 0.2001 | 926.423 | 1.42243
298.15 K, x1 = 0.3002 | 976.038 | 1.44075
298.15 K, x1 = 0.3997 | 1018.55 | 1.45576
298.15 K, x1 = 0.4982 | 1055.22 | 1.46801
298.15 K, x1 = 0.6001 | 1088.5 | 1.47972
298.15 K, x1 = 0.6993 | 1117.16 | 1.48918
298.15 K, x1 = 0.7993 | 1142.92 | 1.49835
298.15 K, x1 = 0.9002 | 1166.21 | 1.5064
298.15 K, x1 = 1 | 1186.93 | 1.51354
303.15 K, x1 = 0.1002 | 863.253 | 1.39965
303.15 K, x1 = 0.2001 | 921.334 | 1.41998
303.15 K, x1 = 0.3002 | 971.032 | 1.43839
303.15 K, x1 = 0.3997 | 1013.62 | 1.45342
303.15 K, x1 = 0.4982 | 1050.34 | 1.4657
303.15 K, x1 = 0.6001 | 1083.68 | 1.47746
303.15 K, x1 = 0.6993 | 1112.38 | 1.48696
303.15 K, x1 = 0.7993 | 1138.18 | 1.49618
303.15 K, x1 = 0.9002 | 1161.51 | 1.50426
303.15 K, x1 = 1 | 1182.28 | 1.51146
308.15 K, x1 = 0.1002 | 858.059 | 1.39705
308.15 K, x1 = 0.2001 | 916.232 | 1.41752
308.15 K, x1 = 0.3002 | 966.01 | 1.4359
308.15 K, x1 = 0.3997 | 1008.66 | 1.45091
308.15 K, x1 = 0.4982 | 1045.45 | 1.46339
308.15 K, x1 = 0.6001 | 1078.84 | 1.4752
308.15 K, x1 = 0.6993 | 1107.6 | 1.48475
308.15 K, x1 = 0.7993 | 1133.45 | 1.49399
308.15 K, x1 = 0.9002 | 1156.83 | 1.50211
308.15 K, x1 = 1 | 1177.62 | 1.50943
313.15 K, x1 = 0.1002 | 852.838 | 1.3943
313.15 K, x1 = 0.2001 | 911.111 | 1.41502
313.15 K, x1 = 0.3002 | 960.975 | 1.43328
313.15 K, x1 = 0.3997 | 1003.7 | 1.44834
313.15 K, x1 = 0.4982 | 1040.55 | 1.46101
313.15 K, x1 = 0.6001 | 1074.01 | 1.47289
313.15 K, x1 = 0.6993 | 1102.82 | 1.48252
313.15 K, x1 = 0.7993 | 1128.73 | 1.49187
313.15 K, x1 = 0.9002 | 1152.15 | 1.50006
313.15 K, x1 = 1 | 1172.97 | 1.50736
318.15 K, x1 = 0.1002 | 847.588 | 1.39158
318.15 K, x1 = 0.2001 | 905.966 | 1.4124
318.15 K, x1 = 0.3002 | 955.922 | 1.43077
318.15 K, x1 = 0.3997 | 998.73 | 1.44591
318.15 K, x1 = 0.4982 | 1035.65 | 1.45864
318.15 K, x1 = 0.6001 | 1069.17 | 1.47061
318.15 K, x1 = 0.6993 | 1098.05 | 1.48032
318.15 K, x1 = 0.7993 | 1124.01 | 1.48973
318.15 K, x1 = 0.9002 | 1147.47 | 1.49796
318.15 K, x1 = 1 | 1168.32 | 1.50524
323.15 K, x1 = 0.1002 | 842.312 | 1.38878
323.15 K, x1 = 0.2001 | 900.811 | 1.40956
323.15 K, x1 = 0.3002 | 950.87 | 1.42768
323.15 K, x1 = 0.3997 | 993.761 | 1.44306
323.15 K, x1 = 0.4982 | 1030.75 | 1.45602
323.15 K, x1 = 0.6001 | 1064.33 | 1.4681
323.15 K, x1 = 0.6993 | 1093.26 | 1.47795
323.15 K, x1 = 0.7993 | 1119.27 | 1.48748
323.15 K, x1 = 0.9002 | 1140.78 | 1.49582
323.15 K, x1 = 1 | 1163.67 | 1.5032

COC(=O)c1ccccc1C(=O)OC [dimethyl 1,2-benzenedicarboxylate] + CCC(C)O
Conditions | mass density, [2] [kg/m3] | refractive index, [1]
288.15 K, x1 = 0.1002 | 874.348 | 1.41917
288.15 K, x1 = 0.2014 | 929.895 | 1.43651
288.15 K, x1 = 0.3002 | 977.298 | 1.45122
288.15 K, x1 = 0.4001 | 1019.6 | 1.46424
288.15 K, x1 = 0.5002 | 1057.27 | 1.47591
288.15 K, x1 = 0.5991 | 1090.58 | 1.48597
288.15 K, x1 = 0.6993 | 1120.97 | 1.49516
288.15 K, x1 = 0.7996 | 1148.47 | 1.50345
288.15 K, x1 = 0.9015 | 1173.86 | 1.51115
288.15 K, x1 = 1 | 1196.26 | 1.51779
293.15 K, x1 = 0.1002 | 870.052 | 1.41698
293.15 K, x1 = 0.2014 | 925.438 | 1.43429
293.15 K, x1 = 0.3002 | 972.737 | 1.44898
293.15 K, x1 = 0.4001 | 1014.97 | 1.46209
293.15 K, x1 = 0.5002 | 1052.6 | 1.47367
293.15 K, x1 = 0.5991 | 1085.88 | 1.48373
293.15 K, x1 = 0.6993 | 1116.26 | 1.49296
293.15 K, x1 = 0.7996 | 1143.78 | 1.50126
293.15 K, x1 = 0.9015 | 1169.18 | 1.50899
293.15 K, x1 = 1 | 1191.59 | 1.51565
298.15 K, x1 = 0.1002 | 865.694 | 1.41476
298.15 K, x1 = 0.2014 | 920.934 | 1.43205
298.15 K, x1 = 0.3002 | 968.144 | 1.44672
298.15 K, x1 = 0.4001 | 1010.32 | 1.45982
298.15 K, x1 = 0.5002 | 1047.9 | 1.47143
298.15 K, x1 = 0.5991 | 1081.18 | 1.48158
298.15 K, x1 = 0.6993 | 1111.56 | 1.49076
298.15 K, x1 = 0.7996 | 1139.08 | 1.49911
298.15 K, x1 = 0.9015 | 1164.51 | 1.50685
298.15 K, x1 = 1 | 1186.93 | 1.51354
303.15 K, x1 = 0.1002 | 861.267 | 1.41252
303.15 K, x1 = 0.2014 | 916.383 | 1.42979
303.15 K, x1 = 0.3002 | 963.512 | 1.44444
303.15 K, x1 = 0.4001 | 1005.63 | 1.45755
303.15 K, x1 = 0.5002 | 1043.19 | 1.46921
303.15 K, x1 = 0.5991 | 1076.45 | 1.47934
303.15 K, x1 = 0.6993 | 1106.84 | 1.48856
303.15 K, x1 = 0.7996 | 1134.39 | 1.49692
303.15 K, x1 = 0.9015 | 1159.83 | 1.5047
303.15 K, x1 = 1 | 1182.28 | 1.51146
308.15 K, x1 = 0.1002 | 856.794 | 1.4102
308.15 K, x1 = 0.2014 | 911.783 | 1.42751
308.15 K, x1 = 0.3002 | 958.844 | 1.44214
308.15 K, x1 = 0.4001 | 1000.92 | 1.45527
308.15 K, x1 = 0.5002 | 1038.47 | 1.46689
308.15 K, x1 = 0.5991 | 1071.73 | 1.47701
308.15 K, x1 = 0.6993 | 1102.13 | 1.48633
308.15 K, x1 = 0.7996 | 1129.69 | 1.49475
308.15 K, x1 = 0.9015 | 1155.16 | 1.50256
308.15 K, x1 = 1 | 1177.62 | 1.50943
313.15 K, x1 = 0.1002 | 852.235 | 1.40779
313.15 K, x1 = 0.2014 | 907.129 | 1.42515
313.15 K, x1 = 0.3002 | 954.133 | 1.43975
313.15 K, x1 = 0.4001 | 996.185 | 1.45295
313.15 K, x1 = 0.5002 | 1033.72 | 1.46458
313.15 K, x1 = 0.5991 | 1066.99 | 1.47484
313.15 K, x1 = 0.6993 | 1097.4 | 1.48415
313.15 K, x1 = 0.7996 | 1124.99 | 1.49263
313.15 K, x1 = 0.9015 | 1150.49 | 1.50047
313.15 K, x1 = 1 | 1172.97 | 1.50736
318.15 K, x1 = 0.1002 | 847.597 | 1.40549
318.15 K, x1 = 0.2014 | 902.417 | 1.42284
318.15 K, x1 = 0.3002 | 949.381 | 1.43749
318.15 K, x1 = 0.4001 | 991.415 | 1.45068
318.15 K, x1 = 0.5002 | 1028.95 | 1.46236
318.15 K, x1 = 0.5991 | 1062.23 | 1.47262
318.15 K, x1 = 0.6993 | 1092.67 | 1.48194
318.15 K, x1 = 0.7996 | 1120.3 | 1.49047
318.15 K, x1 = 0.9015 | 1145.82 | 1.49835
318.15 K, x1 = 1 | 1168.32 | 1.50524
323.15 K, x1 = 0.1002 | 842.887 | 1.40309
323.15 K, x1 = 0.2014 | 897.649 | 1.42026
323.15 K, x1 = 0.3002 | 944.587 | 1.4351
323.15 K, x1 = 0.4001 | 986.618 | 1.4483
323.15 K, x1 = 0.5002 | 1024.16 | 1.46001
323.15 K, x1 = 0.5991 | 1057.47 | 1.47032
323.15 K, x1 = 0.6993 | 1087.94 | 1.47972
323.15 K, x1 = 0.7996 | 1115.59 | 1.48828
323.15 K, x1 = 0.9015 | 1141.14 | 1.49621
323.15 K, x1 = 1 | 1163.67 | 1.5032
